The record followed here is US20240156996A1, “BIOCOMPATIBLE RADIONUCLIDE-CONTAINING COMPOSITIONS AND METHODS OF USE” (priority 2022, published 2024).

The data set can be described thus: Encapsulation efficiency of 225Ac within PLGA nanoparticles (γ-ray spectroscopy after washing). The format is physicochemical. The conditions noted are these: 95:5, 90:10, 75:25 MeOH:DI H2O; FIG. 2. On the procedure: A double-emulsion solvent evaporation method was adapted for the synthesis of PLGA-chelator compound radioisotope complex. The main differences include: (1) using a cup-horn sonicator to generate emulsions and (2) decreasing the reagent volumes to minimize the generation of radiological waste. In a typical synthesis, 100 μL of PLGA dissolved in EtOAc at 40 mg/mL were mixed with 10 μL of 225Ac-chelator compound radioisotope complex in a polar solution (i.e., DI H2O, MeOH, or a mixture of both) within an Eppendorf tube. This mixture was sonicated for 30 s in a cup-horn sonicator to generate a water/oil emulsion. […]
As described above, PLGA nanoparticles were synthesized encapsulating free ^225Ac or ^225Ac-BLPhen complex in a methanol/deionized water (MeOH/DI H2O) mixture. […] The encapsulation efficiency of ^225Ac was determined after washing the PLGA nanoparticle suspensions three times with DI H2O. […] The PLGA nanoparticle suspension, the supernatant, and the Eppendorf tube used for sonication were assayed using γ-ray spectroscopy on a high purity germanium detector coupled to a PC-based multichannel analyzer to account for total radioactivity distribution. […] Energy and efficiency calibrations were determined by γ-ray sources traceable to the National Institute of Standards and Technology.

`[225Ac]` [^225Ac, actinium-225]: the “effect of increasing the water content in the MeOH/DI H2O mixture on encapsulation efficiency within PLGA nanoparticles” value is “decreased the encapsulation efficiency”.
